Assay results published in patent US6803499B1, “Methods and compositions for the production of stably transformed, fertile monocot plants and cells thereof” (DeKalb Genetics Corporation, priority 1989, dated 2004).

Tested on: SC82 cells
Test: Bialaphos selection of SC82 suspension culture cells on filters
Assay type: cell-based, Zea mays
Experimental: The suspension culture (designated SC82) used in the initial experiments (see Example 8) was derived from embryogenic Type-II callus of A188×B73. Following bombardment (see Example 8), cells on filters were resuspended in nonselective liquid medium, cultured for 1 to 2 weeks and transferred to filters overlaying solid medium containing 1 or 3 mg/l bialaphos. The degree of inhibition of tissue growth during selection was dependent upon the density of the cells on the filter and on the concentration of bialaphos used.
Using either selection protocol (1 or 3 mg/l bialaphos), resistant cell colonies emerged on the selection plates of SC82 bombarded with pDPG165 approximately 6 to 7 weeks after bombardment (FIG. 2A). Bialaphos-resistant calli were maintained and expanded on selection medium. Much of this tissue was embryogenic (FIG. 2B). […] These were controls which confirm the prediction that cells without the bar gene are not resistant to bialaphos.

C[C@H](NC(=O)[C@H](C)NC(=O)[C@@H](N)CCP(C)(=O)O)C(=O)O [bialaphos]
growth of cells cultured on bialaphos (SC82 cells, 0.5 PCV/filter, 1 mg/l bialaphos): 30-50 % of nonselected growth
growth of cells on the original selection filter (SC82 cells, 0.5 PCV/filter, 3 mg/l bialaphos): ~10 % of nonselected growth
colony growth on selection plates (cells from untransformed suspension cultures, 1 or 3 mg/l bialaphos): No colony growth
